Starred links: 1 amine or outer side, 2 acyl side, 3 side chain; linkers in the order of their positions; H or OH if unused. Positions of bridges follow the written chain, without caps; N, C: chain ends. Non-standard residues stand in square brackets, D forms with d. Residues, ends and D or L forms follow the SMILES beside them. *: point of attachment. Arg(Nω-CO) = N/C(=N\C(=O)[*:3])NCCC[C@H](N[*:1])C(=O)[*:2]; Ethylenediamine = C(CN[*:2])N[*:1]; Propionyl = CCC(=O)*
Tests used:
[1] = biological target: T1, Neuropeptide Y receptor type 4 (Homo sapiens, UniProt P50391); experiment: Agonist activity at human Y4R expressed in CHO cells co-expressing Gqi5-mtAEQ by calcium2+ aequorin assay relative to control; type: functional, cell-based; settings: filed as agonist
[2] = biological target: T2, Neuropeptide Y receptor type 5 (Homo sapiens, UniProt Q15761); experiment: Displacement of [3H]propionyl-pNPY from human Y5R expressed in HEC-1B cells; type: cell-based, HEC-1B cell line
T2 sequence (Q15761 whole entry): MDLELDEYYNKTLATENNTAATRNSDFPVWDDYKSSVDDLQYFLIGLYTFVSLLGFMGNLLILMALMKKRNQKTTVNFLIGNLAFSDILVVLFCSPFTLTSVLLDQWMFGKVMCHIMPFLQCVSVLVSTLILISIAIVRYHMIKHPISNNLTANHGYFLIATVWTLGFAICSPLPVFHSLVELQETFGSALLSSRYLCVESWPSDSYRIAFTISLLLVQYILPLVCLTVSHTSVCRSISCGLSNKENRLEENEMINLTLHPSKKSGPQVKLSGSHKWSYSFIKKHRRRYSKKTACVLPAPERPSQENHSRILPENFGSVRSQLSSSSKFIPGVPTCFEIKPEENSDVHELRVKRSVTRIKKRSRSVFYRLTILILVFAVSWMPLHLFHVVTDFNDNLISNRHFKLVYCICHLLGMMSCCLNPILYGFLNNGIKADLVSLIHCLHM

[3] = biological target: T3, Neuropeptide Y receptor type 1 (Homo sapiens, UniProt P25929); experiment: Displacement of [3H]UR-MK299 from human Y1R expressed in SK-N-MC cells; type: cell-based
T3 sequence (P25929 whole entry): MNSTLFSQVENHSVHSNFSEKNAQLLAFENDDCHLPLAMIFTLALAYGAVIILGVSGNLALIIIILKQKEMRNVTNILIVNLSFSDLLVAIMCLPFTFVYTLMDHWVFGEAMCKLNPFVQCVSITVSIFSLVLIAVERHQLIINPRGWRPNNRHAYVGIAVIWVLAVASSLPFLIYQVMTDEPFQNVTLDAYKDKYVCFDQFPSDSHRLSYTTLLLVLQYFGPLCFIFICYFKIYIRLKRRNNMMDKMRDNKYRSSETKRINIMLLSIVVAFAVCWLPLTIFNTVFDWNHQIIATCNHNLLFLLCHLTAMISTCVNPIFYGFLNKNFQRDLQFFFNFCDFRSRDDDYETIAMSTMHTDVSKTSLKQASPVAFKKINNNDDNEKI

[4] = biological target: T4, Neuropeptide Y receptor type 2 (Homo sapiens, UniProt P49146); experiment: Displacement of [3H]propionyl-pNPY from human Y2R expressed in CHO cells; type: cell-based
T4 sequence (P49146 whole entry): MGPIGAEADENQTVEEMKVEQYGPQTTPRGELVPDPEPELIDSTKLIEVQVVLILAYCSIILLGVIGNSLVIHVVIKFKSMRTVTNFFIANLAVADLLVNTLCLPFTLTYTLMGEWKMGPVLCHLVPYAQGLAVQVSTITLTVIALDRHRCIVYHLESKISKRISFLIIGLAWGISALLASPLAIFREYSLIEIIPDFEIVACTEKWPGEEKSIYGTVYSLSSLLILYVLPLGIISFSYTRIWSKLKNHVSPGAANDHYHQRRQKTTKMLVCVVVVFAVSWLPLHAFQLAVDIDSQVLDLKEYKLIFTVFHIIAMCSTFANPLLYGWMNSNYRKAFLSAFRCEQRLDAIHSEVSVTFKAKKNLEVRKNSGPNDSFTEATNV

[5] = biological target: T1, Neuropeptide Y receptor type 4; experiment: Agonist activity at human Y4R expressed in CHO cells co-expressing Gqi5-mtAEQ by calcium2+ aequorin assay; type: functional, cell-based
[6] = biological target: T1, Neuropeptide Y receptor type 4; experiment: Agonist activity at human Y4R expressed in HEK293T cells by miniGsi assay relative to control; type: functional, cell-based; settings: filed as agonist
[7] = biological target: T1, Neuropeptide Y receptor type 4; experiment: Displacement of [3H]UR-KK200 from human Y4R expressed in CHO cells co-expressing Gqi5-mtAEQ; type: cell-based
[8] = biological target: T1, Neuropeptide Y receptor type 4; experiment: Agonist activity at human Y4R expressed in HEK293T cells by miniGsi assay; type: functional, cell-based
[9] = biological target: T1, Neuropeptide Y receptor type 4; experiment: Agonist activity at human Y4R expressed in HEK293T cells incubated for 60 mins by cAMP CAMYEN assay; type: functional, cell-based
[10] = biological target: T1, Neuropeptide Y receptor type 4; experiment: Agonist activity at human Y4R expressed in HEK293T cells incubated for 60 mins by cAMP CAMYEN assay relative to control; type: functional, cell-based; settings: filed as agonist
[11] = biological target: T1, Neuropeptide Y receptor type 4; experiment: (§1) Displacement of [3H]-(9S,12S,15S,19R,E)-4-amino-N-((S)-1-(((S)-1-(((S)-1-amino-3-(4-hydroxyphenyl)-1-oxopropan-2-yl)amino)-5-guanidino-1-oxopentan-2-yl)amino)-4-methyl-1-oxopentan-2-yl)-15-(3-guanidinopropyl)-12-(4-hydroxybenzyl)-2,11,14,17,20-pentaoxo-19-(4-(propanamido-2,3-t2)butanamido)-1,3,5,10,13,16,21-heptaazacyclopentacos-3-ene-9-carboxamide from human Y4R expressed in CHO cells coexpressing Gqi5-mtAEQ under hypotonic sodium free buffer condition; type: cell-based
[12] = biological target: T1, Neuropeptide Y receptor type 4; experiment: as §1, with “isotonic” for “hypotonic”, “containing” for “free”; type: cell-based

T1 sequence (P50391 whole entry): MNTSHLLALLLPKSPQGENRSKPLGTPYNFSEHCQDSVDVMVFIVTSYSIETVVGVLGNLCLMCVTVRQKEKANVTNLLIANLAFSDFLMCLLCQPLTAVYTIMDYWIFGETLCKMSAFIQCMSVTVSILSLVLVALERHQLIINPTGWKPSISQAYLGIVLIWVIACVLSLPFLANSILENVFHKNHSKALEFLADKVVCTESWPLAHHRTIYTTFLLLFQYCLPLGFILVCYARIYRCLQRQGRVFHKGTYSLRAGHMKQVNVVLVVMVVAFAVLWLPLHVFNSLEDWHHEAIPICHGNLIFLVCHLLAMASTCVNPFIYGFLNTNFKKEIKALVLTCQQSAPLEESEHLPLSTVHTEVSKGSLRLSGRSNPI

Row | SMILES | Emax [1] [%] | Ki ([2]; hec-1b cell line, read-out: Ki) [nM] | Ki ([2]; read-out: pKi (converted)) [nM] | Ki ([3]; read-out: pKi (converted)) [nM] | Ki ([3]; sk-n-mc, read-out: Ki) [nM] | Ki ([4]; cho, read-out: Ki) [µM] | Ki ([4]; read-out: pKi (converted)) [µM] | EC50 ([5]; read-out: EC50) [nM] | Emax [6] [%] | Ki ([7]; read-out: Ki) [nM] | EC50 [8] [nM] | EC50 ([5]; read-out: pEC50 (converted)) [nM] | EC50 ([9]; read-out: EC50) [nM] | Emax [10] [%] | further results
1 | CC(C)C[C@H](NC(=O)[C@@H]1CCCN/C(N)=N/C(=O)NCCCCNC(=O)C[C@@H](N)C(=O)N[C@@H](CCCNC(=N)N)C(=O)N[C@@H](Cc2ccc(O)cc2)C(=O)N1)C(=O)N[C@@H](CCCNC(=N)N)C(=O)N[C@@H](Cc1ccc(O)cc1)C(N)=O | 63 | > 1000 | > 1000 | > 1000 | > 1000 | > 10 | > 10 | 11 | 68 | 0.031 | 0.89 |  |  |  | 
2 | CC(C)C[C@H](NC(=O)[C@@H]1CCCN/C(N)=N/C(=O)NCCCCNC(=O)[C@H](N)CC(=O)N[C@@H](CCCNC(=N)N)C(=O)N[C@@H](Cc2ccc(O)cc2)C(=O)N1)C(=O)N[C@@H](CCCNC(=N)N)C(=O)N[C@@H](Cc1ccc(O)cc1)C(N)=O | 79 | > 1000 | > 1000 | > 1000 | > 1000 | > 10 | > 10 | 8 | 56 | 0.041 | 1.1 |  |  |  | 
3 | CC(C)C[C@H](NC(=O)[C@@H]1CCCN/C(N)=N/C(=O)NCCCCNC(=O)C[C@H](N)C(=O)N[C@@H](CCCNC(=N)N)C(=O)N[C@@H](Cc2ccc(O)cc2)C(=O)N1)C(=O)N[C@@H](CCCNC(=N)N)C(=O)N[C@@H](Cc1ccc(O)cc1)C(N)=O | 70 | > 1000 | > 1000 | > 3160 |  | > 10 | > 10 | 19 | 55 | 0.33 | 4.7 | 13.2 |  |  | Ki ([3]; read-out: Ki): > 3000 nM
4 | CCC(=O)N[C@H]1CC(=O)NCCCCNC(=O)/N=C(\N)NCCC[C@@H](C(=O)N[C@@H](CC(C)C)C(=O)N[C@@H](CCCNC(=N)N)C(=O)N[C@@H](Cc2ccc(O)cc2)C(N)=O)NC(=O)[C@H](Cc2ccc(O)cc2)NC(=O)[C@H](CCCNC(=N)N)NC1=O | 64 | > 1000 | > 1000 | > 1000 | > 1000 | > 10 | > 10 | 23 | 46 | 0.11 | 8.1 | 20 | 0.2 | 83 | 
5 | CCC(=O)N[C@H]1CC(=O)N[C@@H](CCCNC(=N)N)C(=O)N[C@@H](Cc2ccc(O)cc2)C(=O)N[C@H](C(=O)N[C@@H](CC(C)C)C(=O)N[C@@H](CCCNC(=N)N)C(=O)N[C@@H](Cc2ccc(O)cc2)C(N)=O)CCCN/C(N)=N/C(=O)NCCCCNC1=O | 80 | > 1000 | > 1000 | > 1000 | > 1000 | > 10 | > 10 | 24 | 58 | 0.15 | 3.8 | 22.4 | 0.13 | 82 | 
6 | CCC(=O)N[C@@H]1CC(=O)NCCCCNC(=O)/N=C(\N)NCCC[C@@H](C(=O)N[C@@H](CC(C)C)C(=O)N[C@@H](CCCNC(=N)N)C(=O)N[C@@H](Cc2ccc(O)cc2)C(N)=O)NC(=O)[C@H](Cc2ccc(O)cc2)NC(=O)[C@H](CCCNC(=N)N)NC1=O | 70 | > 1000 | > 1000 | > 1000 | > 1000 |  | > 3.16 | 22 | 64 | 0.12 | 2.6 |  | 0.11 | 81 | Ki ([4]; read-out: Ki): > 3 µM; Ki ([7]; read-out: pKi (converted)): 0.11 nM
7 | CC(C)C[C@H](NC(=O)[C@@H]1CCCNC(=N)NC(=O)NCCCCNC(=O)CCC(=O)N[C@@H](CCCNC(=N)N)C(=O)N[C@@H](Cc2ccc(O)cc2)C(=O)N1)C(=O)N[C@@H](CCCNC(=N)N)C(=O)N[C@@H](Cc1ccc(O)cc1)C(N)=O | 100 |  |  |  |  |  |  |  |  |  |  |  | 0.17 | 113 | Ki ([11]; read-out: Ki): 0.011 nM; Ki ([11]; read-out: pKi (converted)): 0.00912 nM; EC50 ([9]; read-out: pEC50 (converted)): 0.162 nM; Ki ([12]; read-out: Ki): 0.076 nM; Ki ([12]; read-out: pKi (converted)): 0.0741 nM
8 | CC(C)C[C@H](NC(=O)[C@@H]1CCCN/C(N)=N/C(=O)NCCNC(=O)CC[C@H](N)C(=O)N[C@@H](CCCNC(=N)N)C(=O)N[C@@H](Cc2ccc(O)cc2)C(=O)N1)C(=O)N[C@@H](CCCNC(=N)N)C(=O)N[C@@H](Cc1ccc(O)cc1)C(N)=O (H-ERY[Arg(Nω-CO)]LRY-NH2; linker 1-4 via Ethylenediamine) | 65 | > 1000 | > 1000 | > 1000 | > 1000 | > 10 | > 10 | 60 | 67 | 0.17 | 10 |  |  |  | 
9 | CCC(=O)N[C@H]1CCC(=O)NCCNC(=O)/N=C(\N)NCCC[C@@H](C(=O)N[C@@H](CC(C)C)C(=O)N[C@@H](CCCNC(=N)N)C(=O)N[C@@H](Cc2ccc(O)cc2)C(N)=O)NC(=O)[C@H](Cc2ccc(O)cc2)NC(=O)[C@H](CCCNC(=N)N)NC1=O (Propionyl-ERY[Arg(Nω-CO)]LRY-NH2; linker 1-4 via Ethylenediamine) | 66 | > 1000 | > 1000 | > 1000 | > 1000 |  | > 3.16 | 71 | 70 | 0.26 | 19 |  | 0.41 | 86 | Ki ([4]; read-out: Ki): > 3 µM
10 | CCC(=O)N[C@@H]1CC(=O)N[C@@H](CCCNC(=N)N)C(=O)N[C@@H](Cc2ccc(O)cc2)C(=O)N[C@H](C(=O)N[C@@H](CC(C)C)C(=O)N[C@@H](CCCNC(=N)N)C(=O)N[C@@H](Cc2ccc(O)cc2)C(N)=O)CCCN/C(N)=N/C(=O)NCCCCNC1=O | 74 | > 1000 | > 1000 | > 1000 | > 1000 | > 10 | > 10 | 9 | 51 | 0.066 | 1.6 | 6.31 | 0.063 | 85 | EC50 ([9]; read-out: pEC50 (converted)): 0.0501 nM
11 | CC(C)C[C@H](NC(=O)[C@@H]1CCCN/C(N)=N/C(=O)NCCCCNC(=O)[C@@H](N)CC(=O)N[C@@H](CCCNC(=N)N)C(=O)N[C@@H](Cc2ccc(O)cc2)C(=O)N1)C(=O)N[C@@H](CCCNC(=N)N)C(=O)N[C@@H](Cc1ccc(O)cc1)C(N)=O | 85 | > 1000 | > 1000 | > 1000 | > 1000 | > 10 | > 10 | 5 | 59 | 0.026 | 1.1 |  |  |  | Ki ([7]; read-out: pKi (converted)): 0.0245 nM
12 | CC(C)C[C@H](NC(=O)[C@@H]1CCCN/C(N)=N/C(=O)NCCCCNC(=O)[C@H](NC(=O)CCCN)CC(=O)N[C@@H](CCCNC(=N)N)C(=O)N[C@@H](Cc2ccc(O)cc2)C(=O)N1)C(=O)N[C@@H](CCCNC(=N)N)C(=O)N[C@@H](Cc1ccc(O)cc1)C(N)=O | 69 | > 1000 | > 1000 | > 1000 | > 1000 |  | 0.912 | 18 | 62 | 0.093 | 2.5 |  |  |  | Ki ([4]; read-out: Ki): > 0.948 µM; Ki ([7]; read-out: pKi (converted)): 0.0912 nM

From ChEMBL document CHEMBL5370598, “[3H]UR-JG102-A Radiolabeled Cyclic Peptide with High Affinity and Excellent Selectivity for the Neuropeptide Y Y4 Receptor” (J Med Chem, 2023)
